Laboratory results reported in ChEMBL document CHEMBL4251578, “Design, synthesis and biological evaluation of novel 2-aminobenzamides containing dithiocarbamate moiety as histone deacetylase inhibitors and potent antitumor agents” (Eur J Med Chem, 2018).
pIC50: −log10 of the molar value.

Legend:
HeLa [1] = experiment: Antiproliferative activity against human HeLa cells at 8 uM after 72 hrs by CCK-8 assay relative to control; type: functional
HeLa [2] = experiment: Antiproliferative activity against human HeLa cells at 2 uM after 72 hrs by CCK-8 assay relative to control; type: functional
A-375 [3] = experiment: Antiproliferative activity against human A375 cells at 2 uM after 72 hrs by CCK-8 assay relative to control; type: functional; conditions: A-375, 72 h
A-375 [4] = experiment: Antiproliferative activity against human A375 cells at 8 uM after 72 hrs by CCK-8 assay relative to control; type: functional; conditions: A-375, 72 h
MGC-803 [5] = experiment: Antiproliferative activity against human MGC803 cells at 2 uM after 72 hrs by CCK-8 assay relative to control; type: functional; conditions: MGC-803, 72 h
MGC-803 [6] = experiment: Antiproliferative activity against human MGC803 cells at 8 uM after 72 hrs by CCK-8 assay relative to control; type: functional; conditions: MGC-803, 72 h
A-375 [7] = experiment: Antiproliferative activity against human A375 cells after 72 hrs by CCK-8 assay; type: functional, cell-based; conditions: A-375, 72 h
NCI-H1299 = experiment: Antiproliferative activity against human NCI-H1299 cells after 72 hrs by CCK-8 assay; type: functional, cell-based; conditions: NCI-H1299, 72 h
HeLa [8] = experiment: Antiproliferative activity against human HeLa cells after 72 hrs by CCK-8 assay; type: functional, cell-based
SMMC-7721 = experiment: Antiproliferative activity against human SMMC7721 cells after 72 hrs by CCK-8 assay; type: functional, cell-based; conditions: SMMC-7721, 72 h
HCT-116 = experiment: Antiproliferative activity against human HCT116 cells after 72 hrs by CCK-8 assay; type: functional, cell-based; conditions: HCT-116, 72 h
MGC-803 [9] = experiment: Antiproliferative activity against human MGC803 cells after 72 hrs by CCK-8 assay; type: functional, cell-based; conditions: MGC-803, 72 h

pIC50 (A-375 [7])	pIC50 (NCI-H1299)	pIC50 (HeLa [8])	pIC50 (SMMC-7721)	pIC50 (HCT-116)	pIC50 (MGC-803 [9])	SMILES	inhibition at 8 µM (HeLa [1]) [%]	inhibition at 2 µM (HeLa [2]) [%]	inhibition at 2 µM (A-375 [3]) [%]	inhibition at 8 µM (A-375 [4]) [%]	inhibition at 2 µM (MGC-803 [5]) [%]	inhibition at 8 µM (MGC-803 [6]) [%]
						Nc1ccccc1NC(=O)c1ccc(CSC(=S)N2CCN(Cc3ccccn3)CC2)cc1	61.4	14.2	20.7	82.4	23.4	65.2
						Cc1ccc(N2CCN(C(=S)SCc3ccc(C(=O)Nc4ccccc4N)cc3)CC2)cc1	24	25.3	25.8	26.4	33.4	19.8
						Nc1ccccc1NC(=O)c1ccc(CSC(=S)N2CCN(c3cnccn3)CC2)cc1	76.9	70.4	29.1	85.8	27.1	80.5
						Nc1ccccc1NC(=O)c1ccc(CSC(=S)N2CCN(c3cccnc3)CC2)cc1	72.5	66.2	40.5	88.8	27.6	76.9
						Nc1ccccc1NC(=O)c1ccc(CSC(=S)N2CCN(CCc3ccccc3)CC2)cc1	37	21.9	26.1	76.6	24.8	53.8
4.95	4.47	4.74				CC(=O)Nc1ccc(C(=O)Nc2ccccc2N)cc1 [TACEDINALINE]	24.3	7.3	13.4	33.5	9.5	22.4
						Nc1ccccc1NC(=O)c1ccc(CSC(=S)N2CCN(c3ncccn3)CC2)cc1	73.9	52.2	24	67.9	28.4	64.8
						CN(C(=S)SCc1ccc(C(=O)Nc2ccccc2N)cc1)c1cccnc1	70.5	16	26.5	87.7	46.1	82.5
						Nc1ccccc1NC(=O)c1ccc(CSC(=S)N2CCN(C3CCCCC3)CC2)cc1	76.1	30.6	31.7	89.9	16.9	75.3
						CN(Cc1ccncc1)C(=S)SCc1ccc(C(=O)Nc2ccccc2N)cc1	72.7	29.5	31.4	86.1	38.1	83.2
						Nc1ccccc1NC(=O)c1ccc(CSC(=S)N2CCN(c3ccccc3F)CC2)cc1	59.2	17.5	18.7	79.5	33.7	86.4
						Nc1ccccc1NC(=O)c1ccc(CSC(=S)N2CCCc3ccccc32)cc1	35.7	26.1	26.5	81.5	38.5	87.5
						CN(Cc1cccnc1)C(=S)SCc1ccc(C(=O)Nc2ccccc2N)cc1	68.7	16.4	39.4	83.8	45.9	85.5
						Nc1ccccc1NC(=O)c1ccc(CSC(=S)N2CCN(c3ccc(Cl)cc3)CC2)cc1	44.8	51.2	32.2	29	15	17.2
						Nc1ccccc1NC(=O)c1ccc(CSC(=S)N2CCN(Cc3ccncc3)CC2)cc1	72.9	59.5	33.1	89.5	18.4	79.3
						Nc1ccccc1NC(=O)c1ccc(CSC(=S)N(Cc2ccccc2)Cc2ccccc2)cc1	18.9	1	10.9	32.5	11	30.7
						Nc1ccccc1NC(=O)c1ccc(CSC(=S)N2CCN(Cc3ccccc3)CC2)cc1	31.3	20.6	10.6	29.3	18.1	19.7
						Nc1ccccc1NC(=O)c1ccc(CSC(=S)N2CCN(C(c3ccccc3)c3ccccc3)CC2)cc1	13.8	8	8.7	8.4	9.8	9.9
						CC1CCN(C(=S)SCc2ccc(C(=O)Nc3ccccc3N)cc2)CC1	72.5	46.8	32.7	87.4	28.1	81.9
						COc1ccc(N2CCN(C(=S)SCc3ccc(C(=O)Nc4ccccc4N)cc3)CC2)cc1	52.3	39.4	28.1	35.9	25.3	22.9
5.03	6.01		< 4.49	5.56	4.77	Nc1ccccc1NC(=O)c1ccc(CSC(=S)N2CCN(c3ccc(F)cc3)CC2)cc1	64.5	60.8	20.9	76.3	18.8	48.7
						Nc1ccccc1NC(=O)c1ccc(CSC(=S)N2CCN(Cc3cccnc3)CC2)cc1	78	69.7	31.5	89.2	37.7	64.6
						Nc1ccccc1NC(=O)c1ccc(CSC(=S)N2CCc3cc([N+](=O)[O-])ccc32)cc1	43.6	32.6	16.9	29.5	26.8	33.2
						Nc1ccccc1NC(=O)c1ccc(CSC(=S)N2CCCC2)cc1	77.8	51.3	30.2	89.5	27	83.4
						Nc1ccccc1NC(=O)c1ccc(CSC(=S)N2CCc3ccc([N+](=O)[O-])cc32)cc1	62.1	45.7	22.1	42	30.6	39.6
						CN1CCN(C(=S)SCc2ccc(C(=O)Nc3ccccc3N)cc2)CC1	75.7	52.6	36.6	91.6	29.6	84.4
						N#Cc1ccc(N2CCN(C(=S)SCc3ccc(C(=O)Nc4ccccc4N)cc3)CC2)cc1	70.6	71.6	41.4	62.9	34.5	37.6
